Consider seven compounds from US8076487B2, “Pyridone derivative and herbicide” (Kumiai Chemical Industry Co., Ltd., priority 2006, dated 2011).

Molecules are shown by their SMILES.

Common to all, as to type: in vivo
For assay [1], the system named is Japanese bulrush (Scirpus juncoides Roxb.). The experiment in a line: Test Example 1: herbicidal effect by soil application to paddy field. The following applies: paddy field soil application; active ingredient 1,000 g per 1 hectare; wettable powder added dropwise to water surface the day after sowing; examined on the 21st day after application. A digest of the protocol: (§1)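 Under greenhouse conditions, seeds sown on puddled paddy soil in 100 cm2 pots under 3 cm of standing water received the test compound; injury was assessed with a standard scoring scheme three weeks (day 21) after treatment.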

In assay [2] the test system is early watergrass (Echinochloa oryzicola Vasing). The description is as above. The following applies: paddy field soil application; active ingredient 1,000 g per 1 hectare; wettable powder added dropwise to water surface the day after sowing; examined on the 21st day after application. In short, it runs like this:
as §1

The subject of assay [3] is heartshape false pickerelweed (Monochoria vaginalis (Burm.f.) C.Presl). The assay is described as above. To be noted: paddy field soil application; active ingredient 1,000 g per 1 hectare; wettable powder added dropwise to water surface the day after sowing; examined on the 21st day after application. A digest of the protocol: as §1
Assay [4] relates to barnyardgrass (Echinochloa crus-galli (L.) P. Beauv. var. crus-galli). Briefly: Test Example 2: herbicidal effect by soil application to upland field. The following applies: soil surface spray, upland field soil, 1,000 g active ingredient per hectare, 21st day after application. In short, it runs like this: (§2)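 In this soil-application test, sown and soil-covered pots are sprayed uniformly with the formulation diluted in water, giving 1,000 g of active ingredient per ha in a volume of 1,000 L per ha. Plants then grow in a greenhouse for 21 days before herbicidal scoring by a standard scale.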

In assay [5] the test system is green foxtail (Setaria viridis (L.) P. Beauv.). The assay is described as above. The following applies: soil surface spray, upland field soil, 1,000 g active ingredient per hectare, 21st day after application. A digest of the protocol:
as §2

In assay [6] the test system is slender amaranth (Amaranthus viridis L.). The description is as above. The following applies: soil surface spray, upland field soil, 1,000 g active ingredient per hectare, 21st day after application. A digest of the protocol:
as §2

For assay [7], the system named is velvetleaf (Abutilon theophrasti medicus). The assay is described as above. To be noted: soil surface spray, upland field soil, 1,000 g active ingredient per hectare, 21st day after application. In short, it runs like this: as §2
For assay [8], the system named is barnyardgrass (Echinochloa crus-galli (L.) P. Beauv. var. crus-galli). The experiment in a line: Test Example 3: herbicidal effect by application to upland field (foliage treatment). To be noted: 14th day after application; for herbicidal effect, Barnyardgrass: foliage treatment, 1,000 g active ingredient per 1 hectare, greenhouse. In short, it runs like this: (§3)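 Foliage treatment, greenhouse: 2-week-old plants in field soil; wettable powder in water sprayed over the top at 1,000 g a.i./ha (1,000 L/ha); rating on day 14 post-application.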

The subject of assay [9] is green foxtail (Setaria viridis (L.) P. Beauv.). The assay is described as above. The following applies: 14th day after application; for herbicidal effect, Green Foxtail: foliage treatment, 1,000 g active ingredient per 1 hectare, greenhouse. A digest of the protocol: as §3
Assay [10] has as its system slender amaranth (Amaranthus viridis L.). The description is as above. To be noted: 14th day after application; for herbicidal effect, Slender Amaranth: foliage treatment, 1,000 g active ingredient per 1 hectare, greenhouse. A digest of the protocol: as §3
Assay [11] relates to velvetleaf (Abutilon theophrasti medicus). The assay is described as above. To be noted: 14th day after application; for herbicidal effect, Velvetleaf: foliage treatment, 1,000 g active ingredient per 1 hectare, greenhouse. In short, it runs like this: as §3
Setting [12] is: foliage treatment, plants grown two weeks, 1,000 g active ingredient per hectare.

As to `CSCn1c(C(F)(F)F)ccc(C(=O)C2=C(O)CCCC2=O)c1=O` [I-46], the “herbicidal effect, Scirpus juncoides Roxb.” value in assay [1] was 5 (90% or more of herbicidal effect and crop phytotoxicity). In addition, the “herbicidal effect, Echinochloa oryzicola Vasing” value in assay [2] was 5 (90% or more of herbicidal effect and crop phytotoxicity). The “herbicidal effect, Monochoria vaginalis (Burm. f.) C. Presl” value (“herbicidal effect, Monochoria vaginalis” below) in [3] was 5 (90% or more of herbicidal effect and crop phytotoxicity). For the same compound, the “herbicidal effect (index), Barnyardgrass” value in assay [4] was 5 (90% or more of herbicidal effect and crop phytotoxicity); in [8] (setting [12]) it was 5 (90% or more of herbicidal effect and crop phytotoxicity). Moreover, the “herbicidal effect (index), Green Foxtail” value was 3 (50 to less than 70% of herbicidal effect and crop phytotoxicity) in assay [5]; 3 (50 to less than 70% of herbicidal effect and crop phytotoxicity) in assay [9] (setting [12]). Also, the “herbicidal effect (index), Slender Amaranth” value in assay [6] is 5 (90% or more of herbicidal effect and crop phytotoxicity); in [10] (setting [12]), 5 (90% or more of herbicidal effect and crop phytotoxicity). Also, the “herbicidal effect (index), Velvetleaf” value in assay [7] was 5 (90% or more of herbicidal effect and crop phytotoxicity); in assay [11] (setting [12]), 5 (90% or more of herbicidal effect and crop phytotoxicity).
For the compound `CC(C)CNn1c(C(F)(F)F)ccc(C(=O)C2=C(O)CCCC2=O)c1=O` [I-162], the “herbicidal effect, Scirpus juncoides Roxb.” value in [1] was 5 (90% or more of herbicidal effect and crop phytotoxicity). Also, the “herbicidal effect, Echinochloa oryzicola Vasing” value in assay [2] is 5 (90% or more of herbicidal effect and crop phytotoxicity). Further, the “herbicidal effect, Monochoria vaginalis” value in [3] is 5 (90% or more of herbicidal effect and crop phytotoxicity). Further, in assay [4], the “herbicidal effect (index), Barnyardgrass” value is 5 (90% or more of herbicidal effect and crop phytotoxicity). In addition, the “herbicidal effect (index), Green Foxtail” value in [5] was 5 (90% or more of herbicidal effect and crop phytotoxicity). In assay [6], the “herbicidal effect (index), Slender Amaranth” value is 4 (70 to less than 90% of herbicidal effect and crop phytotoxicity). In addition, the “herbicidal effect (index), Velvetleaf” value in [7] is 5 (90% or more of herbicidal effect and crop phytotoxicity). Moreover, the “herbicidal effect, Barnyardgrass” value in assay [8] is 5 (90% or more of herbicidal effect and crop phytotoxicity). The “herbicidal effect, Green Foxtail” value in assay [9] is 5 (90% or more of herbicidal effect and crop phytotoxicity). The “herbicidal effect, Slender Amaranth” value in [10] was 5 (90% or more of herbicidal effect and crop phytotoxicity). Moreover, the “herbicidal effect, Velvetleaf” value in assay [11] was 5 (90% or more of herbicidal effect and crop phytotoxicity).
As for `O=C(C1=C(O)C2CCC(C2)C1=O)c1ccc(C(F)(F)F)n(-c2ccccc2)c1=O` (centres unmarked) [III-34], in assay [1], the “herbicidal effect, Scirpus juncoides Roxb.” value is 5 (90% or more of herbicidal effect and crop phytotoxicity). The “herbicidal effect, Echinochloa oryzicola Vasing” value in [2] is 5 (90% or more of herbicidal effect and crop phytotoxicity). In addition, the “herbicidal effect, Monochoria vaginalis” value in assay [3] was 5 (90% or more of herbicidal effect and crop phytotoxicity). Besides, the “herbicidal effect (index), Barnyardgrass” value in assay [4] was 5 (90% or more of herbicidal effect and crop phytotoxicity). In addition, in assay [5], the “herbicidal effect (index), Green Foxtail” value was 5 (90% or more of herbicidal effect and crop phytotoxicity). The “herbicidal effect (index), Slender Amaranth” value in assay [6] is 5 (90% or more of herbicidal effect and crop phytotoxicity). Moreover, in assay [7], the “herbicidal effect (index), Velvetleaf” value is 5 (90% or more of herbicidal effect and crop phytotoxicity). Moreover, the “herbicidal effect, Barnyardgrass” value in assay [8] was 5 (90% or more of herbicidal effect and crop phytotoxicity). For the same compound, in assay [9], the “herbicidal effect, Green Foxtail” value is 5 (90% or more of herbicidal effect and crop phytotoxicity). In addition, the “herbicidal effect, Slender Amaranth” value in assay [10] is 5 (90% or more of herbicidal effect and crop phytotoxicity). In addition, the “herbicidal effect, Velvetleaf” value in assay [11] is 5 (90% or more of herbicidal effect and crop phytotoxicity).
With `CCN(C(=O)OC)n1c(C(F)(F)F)ccc(C(=O)C2=C(O)CCCC2=O)c1=O` [I-191], the “herbicidal effect, Scirpus juncoides Roxb.” value in assay [1] was 5 (90% or more of herbicidal effect and crop phytotoxicity). In assay [2], the “herbicidal effect, Echinochloa oryzicola Vasing” value was 5 (90% or more of herbicidal effect and crop phytotoxicity). Moreover, the “herbicidal effect, Monochoria vaginalis” value in assay [3] was 5 (90% or more of herbicidal effect and crop phytotoxicity). Moreover, the “herbicidal effect (index), Barnyardgrass” value in assay [4] was 5 (90% or more of herbicidal effect and crop phytotoxicity). Besides, in [5], the “herbicidal effect (index), Green Foxtail” value was 5 (90% or more of herbicidal effect and crop phytotoxicity). Moreover, in assay [6], the “herbicidal effect (index), Slender Amaranth” value is 5 (90% or more of herbicidal effect and crop phytotoxicity). Besides, the “herbicidal effect (index), Velvetleaf” value in assay [7] is 5 (90% or more of herbicidal effect and crop phytotoxicity). For the same compound, the “herbicidal effect, Barnyardgrass” value in assay [8] is 5 (90% or more of herbicidal effect and crop phytotoxicity). In addition, in assay [9], the “herbicidal effect, Green Foxtail” value is 5 (90% or more of herbicidal effect and crop phytotoxicity). The “herbicidal effect, Slender Amaranth” value in [10] was 5 (90% or more of herbicidal effect and crop phytotoxicity). Also, the “herbicidal effect, Velvetleaf” value in [11] is 5 (90% or more of herbicidal effect and crop phytotoxicity).
For `O=C1CCCC(O)=C1C(=O)c1ccc(C(F)(F)F)n(-c2ccsc2)c1=O` [I-148], in assay [1], the “herbicidal effect, Scirpus juncoides Roxb.” value is 5 (90% or more of herbicidal effect and crop phytotoxicity). In [2], the “herbicidal effect, Echinochloa oryzicola Vasing” value is 5 (90% or more of herbicidal effect and crop phytotoxicity). Besides, in assay [3], the “herbicidal effect, Monochoria vaginalis” value was 5 (90% or more of herbicidal effect and crop phytotoxicity). Moreover, the “herbicidal effect (index), Barnyardgrass” value in [4] is 5 (90% or more of herbicidal effect and crop phytotoxicity). Moreover, the “herbicidal effect (index), Green Foxtail” value in [5] is 5 (90% or more of herbicidal effect and crop phytotoxicity). Further, in [6], the “herbicidal effect (index), Slender Amaranth” value is 5 (90% or more of herbicidal effect and crop phytotoxicity). Also, the “herbicidal effect (index), Velvetleaf” value in assay [7] is 5 (90% or more of herbicidal effect and crop phytotoxicity). Also, the “herbicidal effect, Barnyardgrass” value in assay [8] is 5 (90% or more of herbicidal effect and crop phytotoxicity). In [9], the “herbicidal effect, Green Foxtail” value is 5 (90% or more of herbicidal effect and crop phytotoxicity). The “herbicidal effect, Slender Amaranth” value in assay [10] is 5 (90% or more of herbicidal effect and crop phytotoxicity). Also, the “herbicidal effect, Velvetleaf” value in [11] is 5 (90% or more of herbicidal effect and crop phytotoxicity).
Take `Cc1nn(C)c(O)c1C(=O)c1ccc(C(F)(F)F)n(-c2cc(F)cc(F)c2)c1=O` [IV-81]: the “herbicidal effect, Scirpus juncoides Roxb.” value in [1] was 3 (50 to less than 70% of herbicidal effect and crop phytotoxicity). Moreover, in assay [2], the “herbicidal effect, Echinochloa oryzicola Vasing” value is 5 (90% or more of herbicidal effect and crop phytotoxicity). Moreover, in assay [3], the “herbicidal effect, Monochoria vaginalis” value was 5 (90% or more of herbicidal effect and crop phytotoxicity). The “herbicidal effect (index), Barnyardgrass” value in [4] is 5 (90% or more of herbicidal effect and crop phytotoxicity). The “herbicidal effect (index), Green Foxtail” value in assay [5] was 5 (90% or more of herbicidal effect and crop phytotoxicity). Further, the “herbicidal effect (index), Slender Amaranth” value in assay [6] is 5 (90% or more of herbicidal effect and crop phytotoxicity). Besides, the “herbicidal effect (index), Velvetleaf” value in [7] is 5 (90% or more of herbicidal effect and crop phytotoxicity). Further, the “herbicidal effect, Barnyardgrass” value in assay [8] is 4 (70 to less than 90% of herbicidal effect and crop phytotoxicity). Moreover, in [9], the “herbicidal effect, Green Foxtail” value was 4 (70 to less than 90% of herbicidal effect and crop phytotoxicity). Also, the “herbicidal effect, Slender Amaranth” value in assay [10] is 5 (90% or more of herbicidal effect and crop phytotoxicity). The “herbicidal effect, Velvetleaf” value in assay [11] was 5 (90% or more of herbicidal effect and crop phytotoxicity).
On to `Cn1c(C(F)(F)F)ccc(C(=O)C2=C(Sc3ccccc3)C3CCC(C3)C2=O)c1=O` (centres unmarked) [III-14], for which, in assay [1], the “herbicidal effect, Scirpus juncoides Roxb.” value is 5 (90% or more of herbicidal effect and crop phytotoxicity). Besides, the “herbicidal effect, Echinochloa oryzicola Vasing” value in assay [2] was 5 (90% or more of herbicidal effect and crop phytotoxicity). Also, the “herbicidal effect, Monochoria vaginalis” value in assay [3] is 5 (90% or more of herbicidal effect and crop phytotoxicity). The “herbicidal effect (index), Barnyardgrass” value in assay [4] was 4 (70 to less than 90% of herbicidal effect and crop phytotoxicity). The “herbicidal effect (index), Green Foxtail” value in assay [5] is 4 (70 to less than 90% of herbicidal effect and crop phytotoxicity). Besides, in assay [6], the “herbicidal effect (index), Slender Amaranth” value is 5 (90% or more of herbicidal effect and crop phytotoxicity). Also, the “herbicidal effect (index), Velvetleaf” value in [7] was 5 (90% or more of herbicidal effect and crop phytotoxicity). In addition, the “herbicidal effect, Barnyardgrass” value in assay [8] was 5 (90% or more of herbicidal effect and crop phytotoxicity). In addition, the “herbicidal effect, Green Foxtail” value in assay [9] is 5 (90% or more of herbicidal effect and crop phytotoxicity). In addition, in assay [10], the “herbicidal effect, Slender Amaranth” value is 5 (90% or more of herbicidal effect and crop phytotoxicity). Moreover, the “herbicidal effect, Velvetleaf” value in assay [11] was 5 (90% or more of herbicidal effect and crop phytotoxicity).
